Laboratory results taken from patent publication US20250163026A1, “Deuterium-Enriched Nirmatrelvir as SARS-CoV-2 Mpro Inhibitor for the Treatment of COVID-19” (priority 2023, published 2025).

Tested on: human coronavirus M^Pro
Test: Biochemical determination for human coronavirus M^pro assays
Details: at 30 μM, control compound, 1% DMSO
Protocol: The respective human coronavirus M^Pro in assay buffer (20 mM Tris-HCl, pH 7.3, 100 mM NaCl, 1 mM EDTA, 5 mM TCEP) and 0.1% BSA is added to assay-ready plates containing test compound (compound the present invention, Formula I). The enzymatic reaction is then immediately initiated with the addition of 5 μL substrate in assay buffer. Initial rates are measured by following the fluorescence of the cleaved substrate using a Spectramax (Molecular Devices) fluorescence plate reader in the kinetic format.
Test compounds (compounds of the present invention, compounds of Formula I) are tested at final concentrations up to […] in 1% DMSO and compared to the broad-spectrum antiviral compound GC376 [Y. Kim, S. Lovell, et al, Broad-spectrum antivirals against 3C or 3C-like proteases of picornaviruses, noroviruses, and coronaviruses. J. Virol. […] The reaction is allowed to progress for 60 minutes at 23° C. after which the plate is read on a Molecular Devices Spectramax M2e reader at an Ex/Em of 340 nm/490 nm.
Percent inhibition values are calculated based on control wells containing DMSO only (0% inhibition) and wells containing a control compound (100% inhibition). […] Percent activity values are calculated based on control wells containing no compound (100% activity) and wells containing the broad-spectrum antiviral compound GC376 (0% activity). […]

With CC(C)C[C@H](NC(=O)OCc1ccccc1)C(=O)N[C@@H](C[C@@H]1CCNC1=O)C(O)S(=O)(=O)[O-].[Na+] (stereo partly shown) [GC376] the inhibition was 100%.
